How the values were obtained:
Type in all cases: cell-based, human
HUVECs [1] = assay: HUVEC proliferation in 3D PEG hydrogel array spots (Click-iT EdU); conditions: 10 μM SU5416, 24 hours
Protocol: (§1) During proliferation and tubulogenesis experiments, the arrays of encapsulated cells were cultured in growth medium alone or with 10 μM SU5416 for 24 hours only. Afterward, the cells were incubated for 5 hours in growth medium with 20 μM 5-ethynyl-2′-deoxyuridine (EdU) (Invitrogen) as a proliferation marker and, if appropriate, 10 μM SU5416. Afterward, the arrays were stained with Cell Tracker Green in the same manner as the viability assay, but without Hoechst nuclear stain or ethidium homodimer. The arrays were washed with 1×PBS, fixed for 30 minutes in 10% buffered formalin and stained using the Click-iT EdU 594 proliferation kit (Invitrogen). The staining procedure was slightly modified from the manufacturer's instructions, as Alexa Fluor® 594 was diluted to half the recommended concentration. The arrays were soaked in 1×PBS overnight and photographed using a Nikon TE300 fluorescence microscope. Proliferation was quantified by counting the number of EdU-positive cells and dividing by the total number of nuclei in the post. Tubulogenesis was quantified by manually measuring total capillary-like structure (CLS) length in each post as labeled by Cell Tracker Green. To obtain confocal microscopy images, the hydrogel arrays were mounted in Prolong Gold antifade solution (Invitrogen) and photographed on a Nikon A1R-Si confocal microscope.

HUVECs [2] = assay: HUVEC viability in 3D PEG hydrogel array spots; conditions: 10 μM SU5416, 48 hours
Protocol: During hydrogel array fabrication, hydrogel spots contained HUVECs at a density of 2×10^7 cells/mL. The concentration of CRGDS adhesion peptide (SEQ ID NO:2) was adjusted to 0, 0.25, 0.5, 1.0 and 2.0 mM through the addition of PEGNB-CRGDS (SEQ ID NO:2), with the total pendant peptide concentration in all hydrogel spots maintained at 2 mM by adding PEGNB-CRDGS (SEQ ID NO:2). Total polymer percent weight was varied between 4.2, 5 and 7% w/v in the hydrogel spots and 4, 6 and 8% w/v in the backgrounds, with low percent weight hydrogel spots corresponding to low weight percent backgrounds and high percent weight hydrogel spots corresponding to high percent weight backgrounds. During viability experiments, arrays of encapsulated cells were cultured for 48 hours in growth medium alone or with 10 μM SU5416 (Sigma Aldrich), a known inhibitor of VEGFR2 signaling. Medium was replaced 24 hours after encapsulation. After 48 hours of culture, the arrays were washed with serum-free M199 and stained with 5 μM Cell Tracker Green (Invitrogen) for 45 minutes in M199. After 15 minutes of staining, the staining solution was supplemented with Hoechst nuclear stain (Invitrogen) to achieve a final concentration of 10 μg/mL. After staining, the arrays were washed with serum free M199 and incubated for 30 minutes in growth medium containing 2 μM ethidium homodimer (Invitrogen). The arrays were then washed with 1×PBS and fixed for 30 minutes in 10% buffered formalin (Fisher). The arrays were soaked in 1×PBS overnight and photographed using a Nikon TE300 fluorescence microscope within 48 hours of fixation. Viability was quantified by dividing the number of live cell nuclei by total nuclei in the post.

HUVECs [3] = assay: HUVEC tubulogenesis in growth factor-reduced MATRIGEL spots; conditions: 10 μM SU5416, HUVECs in growth factor-reduced MATRIGEL, 48 hours
Protocol: HUVECs were suspended in growth factor-reduced MATRIGEL® (BD Biosciences, San Jose, Calif.) at a density of 2×10^7 cells/mL. A 200 μm thick PDMS sheet of microwells was placed on top of a glass slide and the MATRIGEL®-cell suspension was pipetted as 0.4 μl droplets into the microwells. These arrays of MATRIGEL® “spots” were incubated at 37° C. for 30 minutes and covered in growth medium alone or with 10 μM SU5416. After 48 hours of culture, the arrays were stained with Cell Tracker Green in the same manner as in the PEG hydrogel viability assay, but without Hoechst nuclear stain or ethidium homodimer. The arrays were washed with 1×PBS and fixed for 30 minutes in 10% buffered formalin. A green fluorescence and phase contrast z-stack image of each spot was taken at 48 hours after encapsulation using a Nikon TI Eclipse microscope. Total CLS length in each individual spot was quantified manually.

HUVECs [4] = assay: HUVEC tubulogenesis (total CLS length) in 3D PEG hydrogel array spots; conditions: 10 μM SU5416, 24 hours
Protocol: as §1
Hydrogel solutions were created by combining 36, 42 or 60 mg/mL 20 kDa 8-arm norbornene-functionalized PEG with 0 to 2 mM CRGDS (SEQ ID NO:2) adhesion peptide, additional CRDGS (SEQ ID NO:32) scrambled adhesion peptide to maintain a total adhesion peptide concentration of 2 mM, […] (SEQ ID NO:27) crosslinking peptide at a 2× molar excess concentration to PEG and 0.05% IRGACURE 2959 photoinitiator in phosphate buffered saline. The solutions were polymerized into hydrogels under UV light (90 mW/cm^2, 365 nm, 2 seconds). HUVECs were encapsulated at a density of 2.0×10^7 […] in hydrogels and incubated in M199 supplemented with EGM2 growth supplement. The cells were stained with Cell Tracker Green CMFDA, photographed 24 hours after seeding and scored for total tubule length in the spots. Results are shown FIGS. 18, 28 and 29.

HUVECs [5] = assay: HUVEC proliferation with VEGFR2 inhibition on tissue culture polystyrene (EdU); conditions: 10 μM SU5416, HUVECs on TCPS, 24 hours
Protocol: HUVECs were plated in tissue culture polystyrene (TCPS) 24-well plates at a density of 5.0×10^4 cells/cm^2. The cells were grown in growth medium alone or with 10 μM SU5416 for 24 hours. Afterward, the medium was changed to fresh growth medium with or without 10 μM SU5416 and 20 μM EdU. After 5 hours of incubation, the cells were fixed in 10% buffered formalin for 30 minutes and stained using the Click-iT EdU 488 proliferation kit (Invitrogen). The staining procedure was slightly modified from the manufacturer's instructions, as Alexa Fluor® 488 was diluted to half the recommended concentration. The cells were photographed using a Nikon TE300 fluorescence microscope and proliferation was quantified via by counting nuclei staining positive for EdU and normalizing the number to total nuclei.

Cc1cc(C)c(/C=C2\C(=O)Nc3ccccc32)[nH]1 [SU5416]
effect of VEGFR2 inhibition on proliferation (HUVECs [1]; high modulus, 0 mM CRGDS): significant increase in proliferation
effect of VEGFR2 inhibition on proliferation (HUVECs [1]; high modulus, all CRGDS concentrations except 0 mM): significant decreases in proliferation
effect of VEGFR2 inhibition on proliferation (HUVECs [1]; low modulus, 0, 0.25 and 1 mM CRGDS): significant decrease
effect of VEGFR2 inhibition on proliferation (HUVECs [1]; low modulus, 2 mM CRGDS): increased significantly
effect of VEGFR2 inhibition on HUVEC proliferation (HUVECs [1]; majority of hydrogel conditions): decreased
effect of VEGFR2 inhibition on proliferation (HUVECs [1]; medium modulus, 0.5 and 2 mM CRGDS): significant proliferation decreases
reduction of viability with VEGFR2 inhibition (HUVECs [2]; all modulus conditions, spots with 2 mM CRGDS): insignificant
effect of VEGFR2 inhibition on cell viability (HUVECs [2]; conditions without CRGDS): significantly reduced
effect of VEGFR2 inhibition on viability (HUVECs [2]; high modulus, CRGDS at or above 0.5 mM): not significant
decrease in total tubule length compared to growth medium only (HUVECs [3]): 50%
effect of VEGFR2 inhibition on CLS length (HUVECs [4]; high modulus, 1 mM CRGDS spots): decreased CLS length
effect of VEGFR2 inhibition on CLS length (HUVECs [4]; low modulus, 2 mM CRGDS spots): increased CLS length
effect of VEGFR2 inhibition on CLS length (HUVECs [4]; medium modulus, 0 mM CRGDS spots): decreased CLS length
effect of VEGFR2 inhibition on CLS length compared to growth medium controls (HUVECs [4]; most hydrogel conditions): did not cause significant changes
decrease in proliferation compared to the growth medium control (HUVECs [5]): 20%
